Assay results reported in PubChem BioAssay (NCI).
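Cells were grown in 96-well plates and exposed to each compound for 48 hours at five concentrations; endpoints were interpolated linearly between bracketing concentrations, or set to the highest concentration if not reached. TGI: total growth inhibition.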

Legend:
Experiment in all cases: DTP human tumour cell line panel, 48 h
SK-MEL-28 melanoma = system: SK-MEL-28 melanoma
NCI-H460 lung = system: NCI-H460 lung
SK-MEL-2 melanoma = system: SK-MEL-2 melanoma
OVCAR-5 ovarian = system: OVCAR-5 ovarian
MDA-MB-435 = system: MDA-MB-435
HOP-92 NSCLC = system: HOP-92 NSCLC
RXF 393 renal = system: RXF 393 renal
SR leukemia = system: SR leukemia
NCI/ADR-RES ovarian = system: NCI/ADR-RES ovarian
NCI-H522 lung = system: NCI-H522 lung
ACHN renal = system: ACHN renal
SK-OV-3 ovarian = system: SK-OV-3 ovarian
CAKI-1 renal = system: CAKI-1 renal
HCT-116 colon = system: HCT-116 colon
U251 CNS = system: U251 CNS
SNB-75 CNS = system: SNB-75 CNS
SNB-19 CNS = system: SNB-19 CNS
TK-10 renal = system: TK-10 renal
SW-620 colon = system: SW-620 colon
MDA-N = system: MDA-N
BT-549 breast = system: BT-549 breast
786-0 renal = system: 786-0 renal
COLO 205 colon = system: COLO 205 colon
CCRF-CEM leukemia = system: CCRF-CEM leukemia
DU-145 prostate = system: DU-145 prostate
SF-539 CNS = system: SF-539 CNS
K-562 leukemia = system: K-562 leukemia
M14 melanoma = system: M14 melanoma
A498 renal = system: A498 renal
MCF7 breast = system: MCF7 breast
RPMI-8226 leukemia = system: RPMI-8226 leukemia
SK-MEL-5 melanoma = system: SK-MEL-5 melanoma
OVCAR-3 ovarian = system: OVCAR-3 ovarian
MDA-MB-231 breast = system: MDA-MB-231 breast
HL-60(TB) leukemia = system: HL-60(TB) leukemia
T-47D breast = system: T-47D breast
IGROV1 ovarian = system: IGROV1 ovarian
HS 578T breast = system: HS 578T breast
OVCAR-8 ovarian = system: OVCAR-8 ovarian
SN12C renal = system: SN12C renal
HOP-62 NSCLC = system: HOP-62 NSCLC
HT29 colon = system: HT29 colon
UACC-257 melanoma = system: UACC-257 melanoma
EKVX NSCLC = system: EKVX NSCLC
UO-31 renal = system: UO-31 renal
MALME-3M melanoma = system: MALME-3M melanoma
A549 NSCLC = system: A549 NSCLC
LOX IMVI melanoma = system: LOX IMVI melanoma
HCC-2998 colon = system: HCC-2998 colon
OVCAR-4 ovarian = system: OVCAR-4 ovarian
SF-268 CNS = system: SF-268 CNS
SF-295 CNS = system: SF-295 CNS
MOLT-4 leukemia = system: MOLT-4 leukemia
KM12 colon = system: KM12 colon
UACC-62 melanoma = system: UACC-62 melanoma
NCI-H23 lung = system: NCI-H23 lung
NCI-H226 lung = system: NCI-H226 lung
HCT-15 colon = system: HCT-15 colon
PC-3 prostate = system: PC-3 prostate

## CCOC(=O)CCC(NC(=O)c1ccc(OCc2ccc3nc(-c4ccccc4)c(Cl)nc3c2)cc1)C(=O)OCC (stereo not given)
SK-MEL-28 melanoma
  TGI: > 31.6 µM
NCI-H460 lung
  TGI: > 31.6 µM
SK-MEL-2 melanoma
  TGI: > 100 µM
OVCAR-5 ovarian
  TGI: > 31.6 µM
MDA-MB-435
  TGI: > 31.6 µM
HOP-92 NSCLC
  TGI: 25.5 µM
RXF 393 renal
  TGI: 8.6 µM
SR leukemia
  TGI: > 31.6 µM
NCI/ADR-RES ovarian
  TGI: > 31.6 µM
NCI-H522 lung
  TGI: > 31.6 µM
ACHN renal
  TGI: > 31.6 µM
SK-OV-3 ovarian
  TGI: > 100 µM
CAKI-1 renal
  TGI: > 100 µM
HCT-116 colon
  TGI: > 31.6 µM
U251 CNS
  TGI: > 31.6 µM
SNB-75 CNS
  TGI: 30.3 µM
SNB-19 CNS
  TGI: 31.1 µM
TK-10 renal
  TGI: > 31.6 µM
SW-620 colon
  TGI: > 31.6 µM
MDA-N
  TGI: > 100 µM
BT-549 breast
  TGI: > 31.6 µM
786-0 renal
  TGI: > 31.6 µM
COLO 205 colon
  TGI: > 100 µM
CCRF-CEM leukemia
  TGI: > 31.6 µM
DU-145 prostate
  TGI: > 31.6 µM
SF-539 CNS
  TGI: 28.7 µM
K-562 leukemia
  TGI: > 100 µM
M14 melanoma
  TGI: > 31.6 µM
A498 renal
  TGI: 77.4 µM
MCF7 breast
  TGI: > 31.6 µM
RPMI-8226 leukemia
  TGI: > 31.6 µM
SK-MEL-5 melanoma
  TGI: > 31.6 µM
OVCAR-3 ovarian
  TGI: > 31.6 µM
MDA-MB-231 breast
  TGI: > 67.9 µM
HL-60(TB) leukemia
  TGI: > 31.6 µM
T-47D breast
  TGI: > 31.6 µM
IGROV1 ovarian
  TGI: > 31.6 µM
HS 578T breast
  TGI: > 31.6 µM
OVCAR-8 ovarian
  TGI: 25.3 µM
SN12C renal
  TGI: > 100 µM
HOP-62 NSCLC
  TGI: > 31.6 µM
HT29 colon
  TGI: > 31.6 µM
UACC-257 melanoma
  TGI: > 31.6 µM
EKVX NSCLC
  TGI: > 31.6 µM
UO-31 renal
  TGI: > 31.6 µM
MALME-3M melanoma
  TGI: > 100 µM
A549 NSCLC
  TGI: > 100 µM
LOX IMVI melanoma
  TGI: > 100 µM
HCC-2998 colon
  TGI: > 31.6 µM
OVCAR-4 ovarian
  TGI: > 31.6 µM
SF-268 CNS
  TGI: 28.1 µM
SF-295 CNS
  TGI: > 31.6 µM
MOLT-4 leukemia
  TGI: > 31.6 µM
KM12 colon
  TGI: > 31.6 µM
UACC-62 melanoma
  TGI: > 31.6 µM
NCI-H23 lung
  TGI: > 31.6 µM
NCI-H226 lung
  TGI: 68.8 µM
HCT-15 colon
  TGI: > 31.6 µM

## BrC(c1cccc2ccccc12)c1cccc2ccccc12
SK-MEL-28 melanoma
  TGI: 44.6 µM
NCI-H460 lung
  TGI: 30.4 µM
SK-MEL-2 melanoma
  TGI: 30.1 µM
OVCAR-5 ovarian
  TGI: 84.9 µM
MDA-MB-435
  TGI: 21.2 µM
HOP-92 NSCLC
  TGI: 28.8 µM
RXF 393 renal
  TGI: 27.9 µM
SR leukemia
  TGI: > 100 µM
NCI/ADR-RES ovarian
  TGI: 44.2 µM
NCI-H522 lung
  TGI: 32.3 µM
ACHN renal
  TGI: 52.3 µM
CAKI-1 renal
  TGI: 50.1 µM
HCT-116 colon
  TGI: 27.8 µM
U251 CNS
  TGI: 30.6 µM
SNB-75 CNS
  TGI: 29.1 µM
SNB-19 CNS
  TGI: > 100 µM
TK-10 renal
  TGI: > 100 µM
SW-620 colon
  TGI: 45.5 µM
MDA-N
  TGI: 32.6 µM
BT-549 breast
  TGI: 39.3 µM
786-0 renal
  TGI: 28.2 µM
DU-145 prostate
  TGI: 26.4 µM
K-562 leukemia
  TGI: > 100 µM
M14 melanoma
  TGI: 37.6 µM
A498 renal
  TGI: 31.4 µM
RPMI-8226 leukemia
  TGI: > 100 µM
SK-MEL-5 melanoma
  TGI: 31.4 µM
OVCAR-3 ovarian
  TGI: 24.2 µM
MDA-MB-231 breast
  TGI: 28 µM
HL-60(TB) leukemia
  TGI: 51.4 µM
T-47D breast
  TGI: > 100 µM
IGROV1 ovarian
  TGI: 31.8 µM
OVCAR-8 ovarian
  TGI: 35.1 µM
SN12C renal
  TGI: 27.4 µM
HOP-62 NSCLC
  TGI: 27.1 µM
HT29 colon
  TGI: 35.8 µM
UACC-257 melanoma
  TGI: 53.3 µM
EKVX NSCLC
  TGI: 56.4 µM
UO-31 renal
  TGI: > 100 µM
MALME-3M melanoma
  TGI: 21.1 µM
A549 NSCLC
  TGI: > 100 µM
LOX IMVI melanoma
  TGI: 30.1 µM
OVCAR-4 ovarian
  TGI: 36.1 µM
SF-268 CNS
  TGI: 26.6 µM
SF-295 CNS
  TGI: 44.7 µM
PC-3 prostate
  TGI: 54.1 µM
MOLT-4 leukemia
  TGI: > 100 µM
KM12 colon
  TGI: 28.8 µM
UACC-62 melanoma
  TGI: 27.7 µM
NCI-H23 lung
  TGI: 43 µM
NCI-H226 lung
  TGI: 33.5 µM
HCT-15 colon
  TGI: 42.5 µM
